According to PubChem BioAssay (NCI):
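How tested: cells in 96-well plates exposed to compound for 48 hours at five concentrations. The concentration for full growth arrest is given as TGI.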

Columns and labels:
Assay in all cases: DTP human tumour cell line panel, 48 h
[1] = test system: 786-0 renal
[2] = test system: A498 renal
[3] = test system: ACHN renal
[4] = test system: CAKI-1 renal
[5] = test system: CCRF-CEM leukemia
[6] = test system: COLO 205 colon
[7] = test system: DU-145 prostate
[8] = test system: HCC-2998 colon
[9] = test system: HCT-15 colon
[10] = test system: HL-60(TB) leukemia
[11] = test system: HOP-62 NSCLC
[12] = test system: HS 578T breast
[13] = test system: HT29 colon
[14] = test system: K-562 leukemia
[15] = test system: KM12 colon
[16] = test system: LOX IMVI melanoma
[17] = test system: M14 melanoma
[18] = test system: MALME-3M melanoma
[19] = test system: MCF7 breast
[20] = test system: MDA-MB-231 breast
[21] = test system: MDA-MB-435
[22] = test system: MDA-N
[23] = test system: MOLT-4 leukemia
[24] = test system: NCI-H226 lung
[25] = test system: NCI-H23 lung
[26] = test system: NCI-H460 lung
[27] = test system: NCI/ADR-RES ovarian
[28] = test system: OVCAR-3 ovarian
[29] = test system: OVCAR-8 ovarian
[30] = test system: PC-3 prostate
[31] = test system: RPMI-8226 leukemia
[32] = test system: RXF 393 renal
[33] = test system: SF-295 CNS
[34] = test system: SF-539 CNS
[35] = test system: SK-MEL-2 melanoma
[36] = test system: SK-MEL-28 melanoma
[37] = test system: SK-MEL-5 melanoma
[38] = test system: SK-OV-3 ovarian
[39] = test system: SN12C renal
[40] = test system: SNB-75 CNS
[41] = test system: SR leukemia
[42] = test system: SW-620 colon
[43] = test system: T-47D breast
[44] = test system: TK-10 renal
[45] = test system: U251 CNS
[46] = test system: UACC-257 melanoma
[47] = test system: UACC-62 melanoma
[48] = test system: UO-31 renal

CC(NNC(=S)N1CCCCCC1)c1cccnn1 (stereo not drawn)
TGI [1]: > 100 µM | TGI [2]: 9.82 µM | TGI [3]: 3.09 µM | TGI [4]: > 100 µM | TGI [5]: 1.1 µM | TGI [6]: > 100 µM | TGI [7]: > 100 µM | TGI [8]: > 100 µM | TGI [9]: > 100 µM | TGI [10]: > 32.2 µM | TGI [11]: > 32.5 µM | TGI [12]: > 100 µM | TGI [13]: > 100 µM | TGI [14]: > 58.7 µM | TGI [15]: > 100 µM | TGI [16]: > 100 µM | TGI [17]: 4.94 µM | TGI [18]: > 100 µM | TGI [19]: 0.901 µM | TGI [20]: > 100 µM | TGI [21]: > 56.2 µM | TGI [22]: > 100 µM | TGI [23]: > 100 µM | TGI [24]: > 43.4 µM | TGI [25]: > 100 µM | TGI [26]: > 21.6 µM | TGI [27]: > 88.8 µM | TGI [28]: > 100 µM | TGI [29]: > 100 µM | TGI [30]: > 100 µM | TGI [31]: > 100 µM | TGI [32]: 0.57 µM | TGI [33]: > 39.6 µM | TGI [34]: 0.939 µM | TGI [35]: > 78.8 µM | TGI [36]: > 34.5 µM | TGI [37]: 2.31 µM | TGI [38]: 20.7 µM | TGI [39]: > 100 µM | TGI [40]: > 43.4 µM | TGI [41]: > 100 µM | TGI [42]: > 100 µM | TGI [43]: > 35.1 µM | TGI [44]: > 33.3 µM | TGI [45]: > 80.4 µM | TGI [46]: 3.77 µM | TGI [47]: 1.14 µM | TGI [48]: 2.67 µM
